Data from PubChem BioAssay (NCI).
Values joined by “and” are separate entries in the source; they are usually repeats but may differ in a detail not shown here. Identical values can stand only once.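 How tested: cells in 96-well plates exposed to compound for 48 hours at five concentrations. Here, GI50 denotes the concentration required for 50% inhibition of growth. The concentration for full growth arrest is given as TGI.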

Key:
Assay in all cases: DTP human tumour cell line panel, 48 h; in the data active = GI50 below about 0.43 µM; inactive = the rest
OVCAR-3 ovarian = system: OVCAR-3 ovarian
MDA-N = system: MDA-N
NCI-H226 lung = system: NCI-H226 lung
MDA-MB-435 = system: MDA-MB-435
RXF 393 renal = system: RXF 393 renal
UACC-62 melanoma = system: UACC-62 melanoma
SF-268 CNS = system: SF-268 CNS
CAKI-1 renal = system: CAKI-1 renal
UACC-257 melanoma = system: UACC-257 melanoma
NCI/ADR-RES ovarian = system: NCI/ADR-RES ovarian
U251 CNS = system: U251 CNS
OVCAR-4 ovarian = system: OVCAR-4 ovarian
HT29 colon = system: HT29 colon
COLO 205 colon = system: COLO 205 colon
HCC-2998 colon = system: HCC-2998 colon
IGROV1 ovarian = system: IGROV1 ovarian
NCI-H460 lung = system: NCI-H460 lung
A549 NSCLC = system: A549 NSCLC
SF-295 CNS = system: SF-295 CNS
LOX IMVI melanoma = system: LOX IMVI melanoma
SK-MEL-5 melanoma = system: SK-MEL-5 melanoma
SK-OV-3 ovarian = system: SK-OV-3 ovarian
EKVX NSCLC = system: EKVX NSCLC
NCI-H23 lung = system: NCI-H23 lung
PC-3 prostate = system: PC-3 prostate
SNB-19 CNS = system: SNB-19 CNS
SR leukemia = system: SR leukemia
KM12 colon = system: KM12 colon
SF-539 CNS = system: SF-539 CNS
MCF7 breast = system: MCF7 breast
HOP-62 NSCLC = system: HOP-62 NSCLC
786-0 renal = system: 786-0 renal
SK-MEL-2 melanoma = system: SK-MEL-2 melanoma
SK-MEL-28 melanoma = system: SK-MEL-28 melanoma
DU-145 prostate = system: DU-145 prostate
RPMI-8226 leukemia = system: RPMI-8226 leukemia
OVCAR-8 ovarian = system: OVCAR-8 ovarian
CCRF-CEM leukemia = system: CCRF-CEM leukemia
BT-549 breast = system: BT-549 breast
MDA-MB-231 breast = system: MDA-MB-231 breast
HL-60(TB) leukemia = system: HL-60(TB) leukemia
UO-31 renal = system: UO-31 renal
T-47D breast = system: T-47D breast
SW-620 colon = system: SW-620 colon
HCT-15 colon = system: HCT-15 colon
SNB-75 CNS = system: SNB-75 CNS
MALME-3M melanoma = system: MALME-3M melanoma
NCI-H522 lung = system: NCI-H522 lung
A498 renal = system: A498 renal
ACHN renal = system: ACHN renal
HS 578T breast = system: HS 578T breast
MOLT-4 leukemia = system: MOLT-4 leukemia
TK-10 renal = system: TK-10 renal
OVCAR-5 ovarian = system: OVCAR-5 ovarian
HCT-116 colon = system: HCT-116 colon
HOP-92 NSCLC = system: HOP-92 NSCLC
M14 melanoma = system: M14 melanoma
SN12C renal = system: SN12C renal
K-562 leukemia = system: K-562 leukemia

O=C(O)c1cc2cc(OCc3ccccc3)ccc2[nH]1
0.762 µM and 1.56 µM: TGI (MALME-3M melanoma)
77.4 µM and > 100 µM: TGI (HS 578T breast)
93.1 µM and > 100 µM: TGI (NCI-H226 lung)
inactive: GI50 (NCI-H226 lung) > 100 µM | GI50 (CAKI-1 renal) > 84.2 µM | GI50 (UACC-257 melanoma) > 74 µM | GI50 (OVCAR-4 ovarian) > 100 µM | GI50 (HT29 colon) > 100 µM | GI50 (IGROV1 ovarian) 52.4 µM | GI50 (SNB-19 CNS) > 100 µM | GI50 (MCF7 breast) > 100 µM | GI50 (SK-MEL-2 melanoma) > 100 µM | GI50 (SK-MEL-28 melanoma) 8.32 µM | GI50 (BT-549 breast) 59.1 µM | GI50 (UO-31 renal) 1.92 µM | GI50 (SNB-75 CNS) 34.2 µM | GI50 (A498 renal) 35.1 µM | GI50 (HS 578T breast) > 85 µM | GI50 (HOP-92 NSCLC) 20.7 µM
92.4 µM and > 100 µM: TGI (HOP-92 NSCLC)
> 100 µM: TGI (OVCAR-3 ovarian) | TGI (MDA-N) | TGI (MDA-MB-435) | TGI (RXF 393 renal) | TGI (UACC-62 melanoma) | TGI (SF-268 CNS) | TGI (CAKI-1 renal) | TGI (UACC-257 melanoma) | TGI (NCI/ADR-RES ovarian) | TGI (U251 CNS) | TGI (OVCAR-4 ovarian) | TGI (HT29 colon) | TGI (COLO 205 colon) | TGI (HCC-2998 colon) | TGI (IGROV1 ovarian) | TGI (NCI-H460 lung) | TGI (A549 NSCLC) | TGI (SF-295 CNS) | TGI (LOX IMVI melanoma) | TGI (SK-MEL-5 melanoma) | TGI (SK-OV-3 ovarian) | TGI (EKVX NSCLC) | TGI (NCI-H23 lung) | TGI (PC-3 prostate) | TGI (SNB-19 CNS) | TGI (SR leukemia) | TGI (KM12 colon) | TGI (SF-539 CNS) | TGI (MCF7 breast) | TGI (HOP-62 NSCLC) | TGI (786-0 renal) | TGI (SK-MEL-2 melanoma) | TGI (DU-145 prostate) | TGI (RPMI-8226 leukemia) | TGI (OVCAR-8 ovarian) | TGI (CCRF-CEM leukemia) | TGI (BT-549 breast) | TGI (MDA-MB-231 breast) | TGI (HL-60(TB) leukemia) | TGI (UO-31 renal) | TGI (T-47D breast) | TGI (SW-620 colon) | TGI (HCT-15 colon) | TGI (SNB-75 CNS) | TGI (NCI-H522 lung) | TGI (A498 renal) | TGI (ACHN renal) | TGI (MOLT-4 leukemia) | TGI (TK-10 renal) | TGI (OVCAR-5 ovarian) | TGI (HCT-116 colon) | TGI (M14 melanoma) | TGI (SN12C renal) | TGI (K-562 leukemia)
active: GI50 (MALME-3M melanoma) 0.198 µM
61.7 µM and > 100 µM: TGI (SK-MEL-28 melanoma)
